Data as given in PubChem BioAssay AID330 (DTP/NCI, 2004).
Where “and” joins values, the source holds several entries; their conditions need not be identical. Identical values can stand only once. Toxic doses and inconclusive results are not listed. How the source made its calls: active means survival T/C of 150% or more; inactive means T/C below 125% in these data.

Test system: P388 leukemia ip, CD2F1 mice, survival T/C
Assay: NCI In Vivo Anticancer Drug Screen. Data for tumor model P388 Leukemia (intraperitoneal) in CD2F1 (CDF1) mice
Details: endpoint: median survival time, higher = longer survival
Outline: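 Mice carrying the transplanted tumor received test compound or vehicle. Survival was recorded in each group, and the value is the treated-group measurement divided by that of the vehicle-treated control group.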

[1] = dose: 50.0 mg/kg/injection, schedule: Q01DX009 (ip), vehicle: saline with Tween-80
[2] = dose: 100.0 mg/kg/injection, schedule: Q01DX009 (ip), vehicle: saline with Tween-80
[3] = dose: 200.0 mg/kg/injection, schedule: Q01DX009 (ip), vehicle: saline with Tween-80
[4] = dose: 50.0 mg/kg/injection, schedule: Q01DX005 (ip), vehicle: saline with Tween-80
[5] = dose: 100.0 mg/kg/injection, schedule: Q01DX005 (ip), vehicle: saline with Tween-80
[6] = dose: 200.0 mg/kg/injection, schedule: Q01DX005 (ip), vehicle: saline with Tween-80
[7] = dose: 50.0 mg/kg/injection, schedule: Q01DX005 (ip), vehicle: saline + Tween-80 + alcohol
[8] = dose: 100.0 mg/kg/injection, schedule: Q01DX005 (ip), vehicle: saline + Tween-80 + alcohol
[9] = dose: 200.0 mg/kg/injection, schedule: Q01DX005 (ip), vehicle: saline + Tween-80 + alcohol
[10] = dose: 25.0 mg/kg/injection, schedule: Q01DX009 (ip), vehicle: saline with Tween-80
[11] = dose: 12.5 mg/kg/injection, schedule: Q01DX005 (ip), vehicle: Klucel (hydroxypropylcellulose) (HPC)
[12] = dose: 25.0 mg/kg/injection, schedule: Q01DX005 (ip), vehicle: Klucel (hydroxypropylcellulose) (HPC)
[13] = dose: 50.0 mg/kg/injection, schedule: Q01DX005 (ip), vehicle: Klucel (hydroxypropylcellulose) (HPC)
[14] = dose: 100.0 mg/kg/injection, schedule: Q01DX005 (ip), vehicle: Klucel (hydroxypropylcellulose) (HPC)
[15] = dose: 200.0 mg/kg/injection, schedule: Q01DX005 (ip), vehicle: Klucel (hydroxypropylcellulose) (HPC)
[16] = dose: 3.12 mg/kg/injection, schedule: Q01DX009 (ip), vehicle: saline
[17] = dose: 6.25 mg/kg/injection, schedule: Q01DX009 (ip), vehicle: saline
[18] = dose: 100.0 mg/kg/injection, schedule: Q01DX009 (ip), vehicle: saline
[19] = dose: 200.0 mg/kg/injection, schedule: Q01DX009 (ip), vehicle: saline
[20] = dose: 12.5 mg/kg/injection, schedule: Q01DX009 (ip), vehicle: saline
[21] = dose: 50.0 mg/kg/injection, schedule: Q01DX009 (ip), vehicle: saline

Measured: T/C

NC(=S)N/N=C/C1=C(Cl)c2ccccc2C1
inactive: dose: 6.25 mg/kg/injection, schedule: Q01DX005 (ip), vehicle: saline with Tween-80 109 % of control | dose: 12.5 mg/kg/injection, schedule: Q01DX005 (ip), vehicle: saline with Tween-80 119 % of control

Oc1c(Cl)cc(Cl)cc1C=Nc1cc(C(F)(F)F)ccc1N1CCc2ccccc2C1
inactive: [1] 98 % of control | [2] 95 % of control | [3] 96 % of control

CC(C)CC1NC(=O)N(CCN(C)C)C1=O (configuration not stated)
inactive: [4] 100 % of control | [5] 106 % of control | [6] 100 % of control

Cn1c2c(c3ccccc31)-c1ncncc1CC2
inactive: [7] 106 % of control | [8] 92 % of control | [9] 103 % of control

OCCc1cc(Cl)no1
inactive: [4] 100 % of control | [5] 102 % of control | [6] 109 % of control

CCSc1ccc(C(=O)C2(C)Cc3ccccc3CN2)cc1 (configuration not stated)
inactive: dose: 100.0 mg/kg/injection, schedule: Q01DX001 (ip), vehicle: saline with Tween-80 100 % of control | dose: 200.0 mg/kg/injection, schedule: Q01DX001 (ip), vehicle: saline with Tween-80 99 % of control | dose: 400.0 mg/kg/injection, schedule: Q01DX001 (ip), vehicle: saline with Tween-80 98 % of control

CC(C)(C)NC(=O)N1C2C3CCC(C)(OC3(C)C)C21 (configuration not stated)
inactive: [4] 98 % of control | [5] 99 % of control

CC(=O)n1nc(Cl)c2cccnc2c1=O
inactive: [4] 98 % of control | [5] 99 % of control | [6] 107 % of control

Cc1ccc(C(=O)N=[N+]=[N-])o1
inactive: dose: 12.5 mg/kg/injection, schedule: Q01DX009 (ip), vehicle: saline with Tween-80 98 % of control | [10] 100 % of control | [1] 100 % of control

C(=N\N1CN(/N=C/c2ccccc2)C(c2ccccc2)C1c1ccccc1)/c1ccccc1 (configuration not stated)
inactive: [11] 89 % of control | [12] 99 % of control | [13] 99 % of control and 97 % of control | [14] 99 % of control | [15] 108 % of control

c1csc(-c2cc(-c3cc(-c4cccs4)[nH]n3)n[nH]2)c1
inactive: dose: 60.0 mg/kg/injection, schedule: Q01DX005 (ip), vehicle: Klucel (hydroxypropylcellulose) (HPC) 102 % of control | dose: 120.0 mg/kg/injection, schedule: Q01DX005 (ip), vehicle: Klucel (hydroxypropylcellulose) (HPC) 96 % of control | dose: 240.0 mg/kg/injection, schedule: Q01DX005 (ip), vehicle: Klucel (hydroxypropylcellulose) (HPC) 90 % of control

c1ccc2c(c1)Cc1c-2nc2ccccc2c1N1CCOCC1
inactive: dose: 25.0 mg/kg/injection, schedule: Q01DX005 (ip), vehicle: saline with Tween-80 100 % of control | [4] 106 % of control and 93 % of control | [5] 103 % of control and 112 % of control | [6] 119 % of control

COCC1OC1COC (configuration not stated)
inactive: dose: 50.0 mg/kg/injection, schedule: Q01DX005 (ip), vehicle: saline 107 % of control | dose: 100.0 mg/kg/injection, schedule: Q01DX005 (ip), vehicle: saline 104 % of control | dose: 200.0 mg/kg/injection, schedule: Q01DX005 (ip), vehicle: saline 106 % of control

COc1ccc2c(c1OC)C1=C(C2=O)c2cc3c(cc2CCN1)OCO3
inactive: [7] 102 % of control | [8] 100 % of control | [9] 102 % of control

O=C(O)CC(Sc1ccc(Cl)cc1)C(=O)Nc1ccccc1 (configuration not stated)
inactive: dose: 60.0 mg/kg/injection, schedule: Q01DX005 (ip), vehicle: saline with Tween-80 99 % of control | dose: 120.0 mg/kg/injection, schedule: Q01DX005 (ip), vehicle: saline with Tween-80 95 % of control | dose: 240.0 mg/kg/injection, schedule: Q01DX005 (ip), vehicle: saline with Tween-80 98 % of control

C(=Nc1ccccc1-c1ccccc1N=Cc1ccccc1)c1ccccc1
inactive: dose: 1.56 mg/kg/injection, schedule: Q01DX009 (ip), vehicle: saline 100 % of control and 91 % of control | [16] 91 % of control | dose: 6.25 mg/kg/injection, schedule: Q01DX009 (ip), vehicle: saline with Tween-80 104 % of control | [17] 88 % of control and 93 % of control | [10] 86 % of control | [18] 96 % of control | [19] 89 % of control

COC1=CC(=O)C(CO)=CC1=O
inactive: [16] 104 % of control | [17] 103 % of control and 104 % of control | [20] 104 % of control and 91 % of control

CCOC(=O)C(C(=O)OCC)C1CCS(=O)(=O)C1 (configuration not stated)
inactive: [2] 109 % of control | [3] 104 % of control | dose: 400.0 mg/kg/injection, schedule: Q01DX009 (ip), vehicle: saline with Tween-80 104 % of control

CC(=O)OCC1OC(Oc2ncccn2)C(OC(C)=O)C1OC(C)=O (configuration not stated)
inactive: [21] 98 % of control | dose: 50.0 mg/kg/injection, schedule: Q01DX009 (ip), vehicle: suspension in saline 100 % of control | [18] 103 % of control | dose: 100.0 mg/kg/injection, schedule: Q01DX009 (ip), vehicle: suspension in saline 99 % of control | [19] 100 % of control | dose: 200.0 mg/kg/injection, schedule: Q01DX009 (ip), vehicle: suspension in saline 99 % of control | dose: 400.0 mg/kg/injection, schedule: Q01DX009 (ip), vehicle: saline 99 % of control | dose: 400.0 mg/kg/injection, schedule: Q01DX009 (ip), vehicle: suspension in saline 96 % of control

CCOC1=CCCCC1
inactive: dose: 100.0 mg/kg/injection, schedule: Q04DX003 (ip), vehicle: alcohol 100 % of control | dose: 200.0 mg/kg/injection, schedule: Q04DX003 (ip), vehicle: alcohol 100 % of control | dose: 400.0 mg/kg/injection, schedule: Q04DX003 (ip), vehicle: alcohol 104 % of control

CN1CCN(C(=O)CCSc2nc(-c3ccccc3)c(-c3ccccc3)o2)CC1
inactive: [21] 110 % of control | [18] 110 % of control

Cc1ccc(C)c(NC(=O)Nc2ccccc2C(N)=O)c1
inactive: dose: 50.0 mg/kg/injection, schedule: Q01DX009 (ip), vehicle: Klucel (hydroxypropylcellulose) (HPC) 91 % of control | dose: 100.0 mg/kg/injection, schedule: Q01DX009 (ip), vehicle: Klucel (hydroxypropylcellulose) (HPC) 113 % of control | dose: 200.0 mg/kg/injection, schedule: Q01DX009 (ip), vehicle: Klucel (hydroxypropylcellulose) (HPC) 104 % of control

CCCCCCCCCCCCCCCC[N+](C)(C)CC#N
inactive: [20] 100 % of control | dose: 25.0 mg/kg/injection, schedule: Q01DX009 (ip), vehicle: saline 89 % of control

CS(=O)(=O)c1cc(C(F)(F)F)cc([N+](=O)[O-])c1Cl
inactive: [10] 109 % of control | [1] 100 % of control

COc1cc2c3c(c1)/C(=N\Nc1ccccc1)CCN3CCC2
inactive: dose: 3.12 mg/kg/injection, schedule: Q01DX009 (ip), vehicle: DMSO 99 % of control

O=C1CN(c2ccccc2)C(=O)CN1/N=C/c1ccc(O)c(O)c1
inactive: [4] 93 % of control | [5] 100 % of control | [6] 101 % of control

CCCCCCCCOc1cc2cc(O)oc3cc(=O)cc(o1)c23
inactive: dose: 60.0 mg/kg/injection, schedule: Q01DX005 (ip), vehicle: saline 108 % of control | dose: 120.0 mg/kg/injection, schedule: Q01DX005 (ip), vehicle: saline 122 % of control

CC1=CC2(C)C=C(C)C3(OC(c4ccccc4)=C(C#N)C3=N2)C1=O (configuration not stated)
inactive: [4] 103 % of control | [5] 105 % of control | [6] 111 % of control

Cc1ccc2c(N(CCCl)CCCl)cc(-c3ccccc3)nc2n1
inactive: dose: 50.0 mg/kg/injection, schedule: Q04DX003 (ip), vehicle: Klucel (hydroxypropylcellulose) (HPC) 98 % of control | dose: 100.0 mg/kg/injection, schedule: Q04DX003 (ip), vehicle: Klucel (hydroxypropylcellulose) (HPC) 100 % of control | dose: 200.0 mg/kg/injection, schedule: Q04DX003 (ip), vehicle: Klucel (hydroxypropylcellulose) (HPC) 99 % of control

CN(C)CCCOc1ccccc1NC1=C(Cl)C(=O)C(Nc2ccccc2OCCCN(C)C)=C(Cl)C1=O
inactive: dose: 6.25 mg/kg/injection, schedule: Q01DX005 (ip), vehicle: Klucel (hydroxypropylcellulose) (HPC) 108 % of control | [11] 99 % of control | [12] 97 % of control

Cn1cccc1C1NC(=O)C(c2cccn2C)NC1=O (configuration not stated)
inactive: [13] 95 % of control | [14] 96 % of control | [15] 92 % of control
